From patent publication US20220282271A1, “HERBICIDE RESISTANT PLANTS AND METHODS OF MAKING AND USING” (OFFICE OF INNOVATION ADVANCEMENT AND COMMERCIALIZATION, priority 2019, published 2022) come the findings set out here.

pIC50: −log10 of the molar value.

The target of test [1] is T1, recombinant wild-type E. indica PPO1 (Eleusine indica, UniProt A0A6G5XNV7).
T1 sequence (A0A6G5XNV7 1-529): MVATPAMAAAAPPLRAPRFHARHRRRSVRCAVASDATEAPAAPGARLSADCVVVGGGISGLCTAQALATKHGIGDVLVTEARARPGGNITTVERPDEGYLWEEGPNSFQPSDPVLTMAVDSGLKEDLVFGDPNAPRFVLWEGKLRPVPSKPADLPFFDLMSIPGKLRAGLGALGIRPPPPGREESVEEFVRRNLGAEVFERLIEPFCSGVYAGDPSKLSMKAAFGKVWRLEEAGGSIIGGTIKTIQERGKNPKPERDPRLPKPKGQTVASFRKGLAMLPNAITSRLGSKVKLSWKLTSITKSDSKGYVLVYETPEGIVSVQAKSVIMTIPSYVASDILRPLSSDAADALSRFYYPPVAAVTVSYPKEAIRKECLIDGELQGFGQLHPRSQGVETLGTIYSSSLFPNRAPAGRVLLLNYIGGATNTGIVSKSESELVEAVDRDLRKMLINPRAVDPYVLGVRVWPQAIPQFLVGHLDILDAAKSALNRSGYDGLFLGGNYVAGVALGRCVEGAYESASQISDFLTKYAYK
Description: In vitro PPO enzyme activity inhibition, wild-type PPO1. It is filed as biochemical. From the text: Effects of A212T substitution were studied using the E. indica backbone. The wild-type E. indica PPO1 and the E. indica PPO1 A212T variants were synthesized de novo and subcloned into pRSetB plasmid (Invitrogen, Carlsbad, Calif.). The complete description of expression and purification of E. indica PPO1 and E. indica PPO1 A212T variant proteins were referenced to the method described for PPO2 by Rangani et al. (2019, Frontiers in Plant Sci., 10:568). […] Oxadiazon, sulfentrazone, saflufenacil and lactofen are from the class of oxadiazole, triazolinone, pyrimidinedione, and diphenyl ether, respectively. Flumioxazin and trifludimoxazin are from the same chemical family, N-phenylphthalimide. […] The assay was replicated twice.

Test [2] concerns PPO1 from S E. indica biotype (Ala212) expressed in hemG mutant E. coli strain SASX38. The test is described as follows: hemG mutant E. coli SASX38 complementation assay, S PPO1. As to conditions: LB medium; 0, 10, 50, 100, 200 μM tested; 37° C., 20 h. It is filed as cell-based, Eleusine indica. From the text: (§1) Two putative PPO-inhibitor resistant (R-) and susceptible (S-) plasmids were created to test the role of the chloroplast-targeted PPO1 in the E. indica biotypes. The PPO1 from R1, R2 and S E. indica biotypes were cloned into the pBAD-TOPO expression vector using the pBAD TOPO™ TA Expression kit (Invitrogen, Carlsbad, Calif.), respectively. The PPO1 product was amplified using the same PCR primers and PCR reaction system as cDNA sequencing, so that the PPO1 translation began at the ATG start codon. Three different pBAD-TOPO PPO1 constructs were created and sequenced to confirm they were identical with the PPO1 gene from R1, R2 and S E. indica biotypes and there were no other nucleotide polymorphisms in the cloning experiment. R- and S-PPO1 plasmids were used to transform a hemG mutant Escherichia coli strain SASX38 by electroporation. The SASX38 mutant strain was grown on LB medium supplemented with 10 μg/mL hematin. Expression of the PPO1 in the transformed colonies of the SASX38 mutant strain were induced on LB medium with 2% L-arabinose. […]

Test [3] relates to PPO1 from R1 and R2 E. indica biotypes (A212T) expressed in hemG mutant E. coli strain SASX38. The test is described as follows: hemG mutant E. coli SASX38 complementation assay, R1 and R2 PPO1. The format is cell-based, Eleusine indica. Particulars: R1 and R2 alleles; LB medium; 0, 10, 50, 100, 200 μM tested; 37° C., 20 h.
Source text: as §1

For another test, the system named is Albizia julibrissin. The test is described as follows: Weed control screen: silktree. It is filed as in vivo. As to conditions: 1.0 lb ai/a, applied approximately 3 weeks after emergence, relative to non-treated. Here is the method:
(§2) Herbicides were applied at a spray volume of 280 L/ha with no adjuvant added to any herbicide mixture. Weed control was rated on a 0 to 100 percent phytoxicity scale with 0 being no plant injury/phytotoxicity and 100 being complete plant dessication. Twenty-one weeds were evaluated for response to herbicides (Table 3). The weeds selected were a mixture of weeds common in agronomic and horticultural crops. Herbicide was applied to all species approximately 3 weeks after emergence. Plant phytotoxicity rated as percent control relative to the non-treated.

Another test has as its system Crotalaria spectabilis. Description: Weed control screen: showy crotalaria. The format is in vivo. Particulars: 1.0 lb ai/a, applied approximately 3 weeks after emergence, relative to non-treated. Here is the method: as §2
The next test deals with Physalis angulata. The test is described as follows: Weed control screen: cutleaf groundcherry. As to conditions: 1.0 lb ai/a, applied approximately 3 weeks after emergence, relative to non-treated. The format is in vivo. Here is the method:
as §2

The test system of another test is Murdannia nudiflora. The test is described as follows: Weed control screen: doveweed. The format is in vivo. Particulars: 1.0 lb ai/a, applied approximately 3 weeks after emergence, relative to non-treated. As to the method:
as §2

A further test concerns Ipomoea lacunosa. The test is described as follows: Weed control screen: pitted morningglory. It is filed as in vivo. Particulars: 1.0 lb ai/a, applied approximately 3 weeks after emergence, relative to non-treated. As to the method: as §2
For the next test, the system named is Sida spinosa. Description: Weed control screen: prickly sida. The format is in vivo. As to conditions: 1.0 lb ai/a, applied approximately 3 weeks after emergence, relative to non-treated. As to the method:
as §2

In the next test the test system is Ipomoea quamoclit. Description: Weed control screen: cypressvine morningglory. The format is in vivo. Particulars: 1.0 lb ai/a, applied approximately 3 weeks after emergence, relative to non-treated. As to the method: as §2
The next test deals with Conyza candensis. Description: Weed control screen: glyphosate-resistant horseweed. Particulars: 1.0 lb ai/a, applied approximately 3 weeks after emergence, relative to non-treated. The format is in vivo. As to the method: as §2
A further test relates to Solanum carolinense. Description: Weed control screen: Carolina horsenettle. The format is in vivo. Particulars: 1.0 lb ai/a, applied approximately 3 weeks after emergence, relative to non-treated. As to the method:
as §2

A further test concerns Sorghum halapense. The test is described as follows: Weed control screen: johnsongrass. The format is in vivo. Particulars: 1.0 lb ai/a, applied approximately 3 weeks after emergence, relative to non-treated. As to the method: as §2
The test system of a further test is Abutilon theophrasti. The test is described as follows: Weed control screen: velvetleaf. The format is in vivo. As to conditions: 1.0 lb ai/a, applied approximately 3 weeks after emergence, relative to non-treated. Here is the method: as §2
Another test concerns Amaranthus hybridus. Description: Weed control screen: smooth pigweed. It is filed as in vivo. As to conditions: 1.0 lb ai/a, applied approximately 3 weeks after emergence, relative to non-treated. As to the method: as §2
Test [4] concerns Twenty-one weeds common in agronomic and horticultural crops. The test is described as follows: Weed control screen: summary over the twenty-one weeds. The format is in vivo. Here is the method: as §2
Where [5] appears, read: highest herbicide concentration 10^−5 M.

Take `CC(C)Oc1cc(-n2nc(C(C)(C)C)oc2=O)c(Cl)cc1Cl` [Oxadiazon, oxadiazon]: the pIC50 (in general, the IC50 on a negative log10 scale, so that one unit is a factor of ten) in test [1] is 7.61. Moreover, the “Wild-type E. indica PPO1 % inhibition” value in [1] (setting [5]) is recorded as over 90%. In [1] (setting [5]), the inhibition – broadly, the relative decrease from the control value, in per cent – at 10 µM is over 90%. Also, the “Concentration in medium that inhibited the growth of the transformed E. coli” value in test [2] was 50 µM. Further, the “Concentration at which the transformed E. coli were able to grow” value in [3] is listed as “up to 200 μM”. Also, the “Percent control (0 to 100)” value in the test with Albizia julibrissin came out at 50%; in the test with Crotalaria spectabilis, 99%; in the test on Physalis angulata it was 70%; in the test on Murdannia nudiflora it was 0%; in the test with Ipomoea lacunosa, 100%; in the test with Sida spinosa, 90%. Also, the “Percent control (0 to 100)” value with Ipomoea quamoclit is given as 100%; in the test on Conyza candensis, 30%; in the test on Solanum carolinense it was 60%; in the test with Sorghum halapense, 100%; in the test on Abutilon theophrasti it was 100%; in the test on Amaranthus hybridus, 100%. The “Number of the 21 weeds evaluated controlled at a level greater than or equal to 90%” value in test [4] (1.0 lb ai/a) came out at 13 weeds. Further, the “Number of the 21 weeds controlled greater than or equivalent to glyphosate” value in [4] (1.0 lb ai/a each) was found to be 18 weeds.
